Earlier results in patent US20130324521A1, “IMPLANT FOR TREATING OR PREVENTING AN ANEURYSM” (priority 2010, published 2013).

## Cn1cncc1[C@@](N)(c1ccc(Cl)cc1)c1ccc2c(c1)c(-c1cccc(Cl)c1)cc(=O)n2C [R11577, Tipifarnib]
Oral administration
  tolerability of oral administration: tolerated well
Use as accredited therapeutic agent in oncological therapy
  toxicity: low toxicity
